Assay results published in article PMC5365251, “Biophysical assay for tethered signaling reactions reveals tether-controlled activity for the phosphatase SHP-1” (Science Advances, 2017).

What was measured:
SHP-1 [1] = molecular target: T1, SHP-1 (Mus musculus, UniProt P29351); experiment: SPR of SHP-1 injected over ITIM peptides: SHP-1 binding to the peptides; parameters: species or system murine; conditions: SHP-1 over peptides with shorter PEG linkers, compared with PEG28-ITIM; Fig. 5B
T1 construct: 6xHis (N); made in house; host or cells: Escherichia coli BL21-CodonPlus (DE3)-RIPL
Description: (§1) A construct expressing murine SHP-1 with an N-terminal 6× His tag was provided by M. H. Brown. Mutation of the SH2 domains was performed using a quick-change strategy. The mutations introduced were R30K and R33E for the N-terminal SH2 domain mutant and R136K for the C-terminal SH2 domain mutant previously shown to result in loss of binding ([6]). All peptides were ordered from PeptideSynthetics and were certified to be >95% pure. Peptides sequences were derived from the membrane-proximal ITIM sequence of mouse LAIR-1 receptor.
(§2) Experiments were performed on a Biacore 3000 instrument (GE Healthcare Life Sciences). All experiments were performed at 10°C and with a buffer flow rate of 10 μl/min. The buffer used was Hepes-buffered saline (HBS-EP; GE Healthcare Life Sciences), which contained 10 mM Hepes (pH 7.4), 150 mM NaCl, 3 mM EDTA, and 0.005% Surfactant P20.
A CM5 sensorchip was coupled with streptavidin to near saturation (typically between 4000 and 7000 RU) using the amine coupling kit (GE Healthcare Life Sciences) as described previously ([42]). After streptavidin was coupled, biotinylated peptides were injected to give the indicated concentrations in experimental flow cells, and excess biotin-binding sites were blocked with biotin in HBS-EP. […]

SHP-1 [2] = molecular target: T1, SHP-1; experiment: SPR of SHP-1 injected over ITIM peptides with different PEG linker lengths: reach and tethered catalysis (MPDPDE fit); assay type: biochemical, murine; conditions: for kcat*(tethered) versus tether length: SHP-1 over peptides with shorter PEG linkers, compared with PEG28-ITIM, Fig. 5B; for L (reach parameter) versus tether length: SHP-1 over peptides, average fit, PEG28 n = 15, PEG0 n = 2, 10°C, HBS-EP pH 7.4
Description: as §1, §2
(§3) A CM5 sensorchip was coupled with streptavidin to near saturation (typically between 4000 and 7000 RU) using the amine coupling kit (GE Healthcare Life Sciences) as described previously ([42]). After streptavidin was coupled, biotinylated peptides were injected to give the indicated concentrations in experimental flow cells, and excess biotin-binding sites were blocked with biotin in HBS-EP. The molar ratio of peptide to streptavidin was kept below 1:1 to ensure that peptide immobilization was random and not clustered on the tetravalent streptavidin molecules. Reference flow cells were treated with buffer and then blocked with biotin; pilot experiments using unphosphorylated control peptides in reference flow cells were indistinguishable from buffer-treated reference flow cells when injected with SHP-1. The chip surface was then conditioned with 5 × 5-min injections of HBS-EP. SHP-1 protein in HBS-EP with 1 mM dithiothreitol was then injected over reference and experimental flow cells in series for 5 min at the indicated concentrations. All SPR data were converted from the reference-subtracted data (in resonance units) to fraction bound by dividing the resonance units by the theoretical maximum resonance units expected if the experimental flow cell was saturated with bound SHP-1.
The five fitting parameters (p1, p2, p3, p4, and p5) are related to the five biophysical/biochemical constants as follows: p1 = kon [SHP-1], p2 = koff, p3=kcat*(tethered)× [peptide], p4=kcat*(tethered)/L^3 , and p5=kcat*(solution)× [SHP-1].
The MPDPDE model was fit to the experimental data using lsqcurvefit in Matlab (Mathworks). Specifically, the value of nB from the MPDPDE model was fit to the experimental SPR data that were normalized to maximum binding. Each fit was repeated multiple times with different initial guesses for the five fitting parameters to make certain that the best fit was achieved (global convergence). […]

PEG28-ITIM [3] = experiment: SPR of SHP-1 injected over immobilised PEG28-ITIM: binding constants (MPDPDE fit); parameters: species or system mouse; conditions: SHP-1 variants over PEG28-ITIM, compared with wild-type
Description: as §1, §2, §3
To determine the concentration of peptide in the assays, we first needed a conversion factor between the resonance units and the mass of peptide at the chip surface. We determined this conversion factor by injecting four concentrations of SHP-1 over a control flow cell on a CM5 chip and plotting the mass of SHP-1 injected against the raw resonance unit change. We repeated this on seven flow cells across four sensor chips to get an average slope of 149 ± 15 RU per g/liter (±SEM). […]

PEG28-ITIM [4] = experiment: SPR of SHP-1 injected over immobilised PEG28-ITIM: tethered/solution catalysis and reach (MPDPDE fit); assay type: biochemical, mouse; conditions: for L (reach parameter), SH2 variants / allosteric activation (in words), SH2 variants: SHP-1 variants over PEG28-ITIM; for L (reach parameter), SH2 variants: average fit Fig. 6B: WT n = 15, N-SH2 mutant n = 3, C-SH2 mutant n = 9
Description: as §1, §2, §3
To determine the concentration of peptide in the assays, we first needed a conversion factor between the resonance units and the mass of peptide at the chip surface. We determined this conversion factor by injecting four concentrations of SHP-1 over a control flow cell on a CM5 chip and plotting the mass of SHP-1 injected against the raw resonance unit change. We repeated this on seven flow cells across four sensor chips to get an average slope of 149 ± 15 RU per g/liter (±SEM). This constant, together with the molecular weight of the peptide, was used to convert between the resonance units of peptides immobilized and the molar concentration at the chip surface. For example, 48.5 RU of PEG28-ITIM (molecular weight, 3221) was immobilized to obtain [peptide] = 97.1 μM (Fig. 2A).
From the MPDPDE model–simulated SPR traces, one would predict that the kcat*(solution) (fig. S4, G and H) and L (fig. S4F) are likely to be very sensitive to small systematic errors in the SPR trace at longer time scales. Nonspecific binding and baseline drift are two well-known sources of such systemic errors that can produce artifacts at long time scales (see fig. S6A for examples). To exclude data affected by these artifacts, we propose a simple quality control check that greatly improves the accuracy of estimating L, kcat*(tethered) , and kcat*(solution) . As a measure of the signal-to-noise ratio at long time points, we took the resonance units 20 s after the injection was completed (noise) and divided it by the resonance units 20 s before the injection finished (signal). […] Data that had evidence of significant artifact were excluded from the study based on this criterion (red data points in fig. S6B). […]

T1 sequence (P29351 whole entry): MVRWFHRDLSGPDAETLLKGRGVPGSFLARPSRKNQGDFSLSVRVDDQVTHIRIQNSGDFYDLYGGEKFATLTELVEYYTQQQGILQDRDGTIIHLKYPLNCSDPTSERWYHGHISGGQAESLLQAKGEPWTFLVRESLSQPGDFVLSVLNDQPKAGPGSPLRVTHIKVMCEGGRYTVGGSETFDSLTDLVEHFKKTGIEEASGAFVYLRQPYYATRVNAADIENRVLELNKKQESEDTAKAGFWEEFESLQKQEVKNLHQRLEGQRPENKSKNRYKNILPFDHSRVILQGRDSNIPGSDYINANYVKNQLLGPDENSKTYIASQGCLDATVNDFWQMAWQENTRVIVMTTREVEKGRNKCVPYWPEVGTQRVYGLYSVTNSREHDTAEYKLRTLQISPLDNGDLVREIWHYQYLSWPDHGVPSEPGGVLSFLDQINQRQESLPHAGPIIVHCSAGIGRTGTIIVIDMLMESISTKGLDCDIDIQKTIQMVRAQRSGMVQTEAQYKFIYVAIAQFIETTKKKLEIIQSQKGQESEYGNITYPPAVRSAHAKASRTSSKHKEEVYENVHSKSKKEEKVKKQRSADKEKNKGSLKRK

Substance | kon versus tether length (SHP-1 [1]) | kcat*(tethered) versus tether length (SHP-1 [2]) | L (reach parameter) versus tether length (SHP-1 [2]) [nm] | L (reach parameter), SH2 variants (PEG28-ITIM [4]) [nm] | allosteric activation (in words), SH2 variants (PEG28-ITIM [4]; Fig. 6B) | other results
Biotin-(PEG)3-DLQEVTY*IQLDHH [PEG3-ITIM] | decrease | decrease | – | – | – | –
Biotin-(PEG)28-DLQEVTY*IQLDHH [PEG28-ITIM] | – | – | 23 | – | – | –
Biotin-GDLQEVTY*IQLDHH [PEG0-ITIM] | decrease | decrease | 17 | – | – | –
C-terminal mutant: SHP-1 with R136K mutation in the C-terminal SH2 domain | – | – | – | 23.9 | allosteric activation is observed in both cases | binding to ITIM peptide (in words), SH2 variants (PEG28-ITIM [3]): weak effect on binding
N-terminal mutant: SHP-1 with R30K and R33E mutations in the N-terminal SH2 domain | – | – | – | 16.5 | still exhibited allosteric activation | binding to ITIM peptide (in words), SH2 variants (PEG28-ITIM [3]; listed as Mutation of the N-terminal SH2 domain): drastically reduced binding; binding to ITIM peptide (in words), SH2 variants (PEG28-ITIM [3]; listed as N-terminal SH2 (N-SH2) mutant SHP-1): weak binding; kcat*(tethered) over kcat*(solution), SH2 mutant (PEG28-ITIM [4]; N-SH2 mutant SHP-1 over PEG28-ITIM, n = 3): 10 fold; allosteric activation (in words), SH2 variants (PEG28-ITIM [4]; Fig. 6B, listed as N-terminal SH2 (N-SH2) mutant SHP-1): allosteric activation is observed in both cases; reach (in words), SH2 variants (PEG28-ITIM [4]; binding via C-terminal compared to N-terminal SH2 domain, PEG28-ITIM, Fig. 6B): reduced reach
